Test results published in PMC5453931, “Cathelicidin-trypsin inhibitor loop conjugate represents a promising antibiotic candidate with protease stability” (Scientific Reports, 2017).
Converted amounts (≈) assume the structure as drawn. Where a SMILES comes first, the peptide text is derived from it.

What was measured:
Type in all cases: cell-based
E. coli = settings: 18 h
Protocol: (§1) A two-fold broth microdilution method described in our previous paper was used to determine the antimicrobial activities of parental and hybrid peptides. More than 30 strains including Gram-negative bacteria, Gram-positive bacteria and fungi were used in the current assay, in which the standard strains were stored in our lab and the clinical strains were collected from local hospitals. Briefly, bacteria were incubated in Mueller-Hinton broth (MH broth) at 37 °C to exponential phase and diluted to 10^6 CFU/mL. A serial dilution of peptide sample were prepared in 96-well microtiter plates (50 μL) and mixed with equal volume of microbial inoculums (50 μL). The plate was slowly shaken in the microbial incubator, and measured at A595 after incubation at 37 °C for 18 h. The minimal concentrations at which no microbial growth occurred were recorded as MIC (minimal inhibitory concentration) values. The traditional antibiotic ampicillin was used as positive control. The results are shown in an average of the MICs obtained from three independent experiments.

B. subtilis = settings: 18 h
Protocol: as §1

P. mirabilis = settings: 18 h
Protocol: as §1

P. aeruginosa = settings: 18 h
Protocol: as §1

C. albican = settings: 18 h
Protocol: as §1

S. dysenteria = settings: two-fold broth microdilution, MH broth, 37 °C, 18 h, A595; mean of three independent experiments in duplicate
Protocol: as §1

S. aureus = settings: 18 h
Protocol: as §1

Vibrio Parahaemolyticus = assay: MIC, two-fold broth microdilution; settings: Vibrio parahaemolyticus, 18 h, read-out: MIC Vibrio Parahaemolyticus
Protocol: as §1

Structure (SMILES) | MIC E. coli (E. coli) [µg/mL] | MIC B. subtilis (B. subtilis) [µg/mL] | MIC P. mirabilis (P. mirabilis) [µg/mL] | MIC P. aeruginosa (P. aeruginosa) [µg/mL] | MIC C. albican (C. albican) [µg/mL] | MIC S. dysenteria (S. dysenteria) [µg/mL] | MIC S. aureus (S. aureus) [µg/mL] | MIC (Vibrio Parahaemolyticus) [µg/mL]
CC(C)C[C@H](NC(=O)[C@H](CCCNC(=N)N)NC(=O)[C@H](CCCCN)NC(=O)[C@H](Cc1ccccc1)NC(=O)[C@H](Cc1ccccc1)NC(=O)[C@@H](N)CCCCN)C(=O)N[C@@H](CC(C)C)C(=O)N[C@@H](CCCCN)C(=O)N[C@@H](CO)C(=O)N[C@H](C(=O)N[C@@H](CCCNC(=N)N)C(=O)N[C@@H](CCCNC(=N)N)C(=O)N[C@@H](C)C(=O)N[C@H](C(N)=O)C(C)C)C(C)C [Hc6] (H-KFFKRLLKSVRRAV-NH2) | 75 (≈ 42.9 µM) | 150 (≈ 85.9 µM) | 37.5 (≈ 21.5 µM) | 150 (≈ 85.9 µM) | 75 (≈ 42.9 µM) | 18.75 (≈ 10.7 µM) | 75 (≈ 42.9 µM) | –
CC(C)C[C@H](NC(=O)[C@H](CC(C)C)NC(=O)[C@H](CCCNC(=N)N)NC(=O)[C@H](CCCCN)NC(=O)[C@@H](N)Cc1ccccc1)C(=O)N[C@@H](CCCCN)C(=O)N[C@@H](CO)C(=O)N[C@H](C(=O)N[C@@H](CCCNC(=N)N)C(=O)N[C@@H](CCCNC(=N)N)C(=O)N[C@@H](C)C(=O)N[C@H](C(=O)N[C@@H](CCCCN)C(=O)N[C@@H](CCCCN)C(=O)N[C@@H](Cc1ccccc1)C(=O)N[C@@H](CCCNC(=N)N)C(=O)N[C@@H](CCCCN)C(N)=O)C(C)C)C(C)C [Hc9] (H-FKRLLKSVRRAVKKFRK-NH2) | 150 (≈ 69.5 µM) | – | – | 150 (≈ 69.5 µM) | 150 (≈ 69.5 µM) | 18.75 (≈ 8.68 µM) | 9.38 (≈ 4.34 µM) | –
CC(C)C[C@H](NC(=O)[C@H](CCCNC(=N)N)NC(=O)[C@H](CCCCN)NC(=O)[C@H](Cc1ccccc1)NC(=O)[C@H](Cc1ccccc1)NC(=O)[C@@H](N)CCCCN)C(=O)N[C@@H](CC(C)C)C(=O)N[C@@H](CCCCN)C(=O)N[C@@H](CO)C(=O)N[C@H](C(=O)N[C@@H](CCCNC(=N)N)C(=O)N[C@@H](CCCNC(=N)N)C(=O)N[C@@H](C)C(N)=O)C(C)C [Hc7] (H-KFFKRLLKSVRRA-NH2) | – | – | – | 150 (≈ 91 µM) | – | 75 (≈ 45.5 µM) | – | –
C[C@@H](O)[C@H]1C(=O)N2C(C(=O)O)=C(S[C@@H]3CN[C@H](C(=O)N(C)C)C3)[C@H](C)[C@H]12 [Meropenem, reference compound] | – | – | – | – | – | – | – | 0.47 (≈ 1.23 µM)
CC(C)C[C@H](NC(=O)[C@H](CC(C)C)NC(=O)[C@H](CCCNC(=N)N)NC(=O)[C@H](CCCCN)NC(=O)[C@@H](N)Cc1ccccc1)C(=O)N[C@@H](CCCCN)C(=O)N[C@@H](CO)C(=O)N[C@H](C(=O)N[C@@H](CCCNC(=N)N)C(=O)N[C@@H](CCCNC(=N)N)C(=O)N[C@@H](C)C(=O)N[C@H](C(=O)N[C@@H](CCCCN)C(=O)N[C@@H](CCCCN)C(=O)N[C@@H](Cc1ccccc1)C(N)=O)C(C)C)C(C)C [Hc15] (H-FKRLLKSVRRAVKKF-NH2) | 75 (≈ 40 µM) | – | – | – | – | 37.5 (≈ 20 µM) | – | –
CC(C)C[C@H](NC(=O)[C@H](CC(C)C)NC(=O)[C@@H](N)CCCNC(=N)N)C(=O)N[C@@H](CCCCN)C(=O)N[C@@H](CO)C(=O)N[C@H](C(=O)N[C@@H](CCCNC(=N)N)C(=O)N[C@@H](CCCNC(=N)N)C(=O)N[C@@H](C)C(=O)N[C@H](C(=O)N[C@@H](CCCCN)C(=O)N[C@@H](CCCCN)C(=O)N[C@@H](Cc1ccccc1)C(=O)N[C@@H](CCCNC(=N)N)C(=O)N[C@@H](CCCCN)C(N)=O)C(C)C)C(C)C [Hc11] (H-RLLKSVRRAVKKFRK-NH2) | – | – | – | – | – | 150 (≈ 79.6 µM) | – | –
CC(C)C[C@H](NC(=O)[C@H](CCCNC(=N)N)NC(=O)[C@H](CCCCN)NC(=O)[C@H](Cc1ccccc1)NC(=O)[C@H](Cc1ccccc1)NC(=O)[C@@H](N)CCCCN)C(=O)N[C@@H](CC(C)C)C(=O)N[C@@H](CCCCN)C(=O)N[C@@H](CO)C(=O)N[C@H](C(=O)N[C@@H](CCCNC(=N)N)C(=O)N[C@@H](CCCNC(=N)N)C(=O)N[C@@H](C)C(=O)N[C@H](C(=O)N[C@@H](CCCCN)C(=O)N[C@@H](CCCCN)C(N)=O)C(C)C)C(C)C [Hc4] (H-KFFKRLLKSVRRAVKK-NH2) | 75 (≈ 37.4 µM) | – | 75 (≈ 37.4 µM) | 150 (≈ 74.9 µM) | 75 (≈ 37.4 µM) | 4.69 (≈ 2.34 µM) | 75 (≈ 37.4 µM) | –
